Reference: article PMC8875126, “Mechanistic Insights into Stereospecific Antifungal Activity of Chiral Fungicide Prothioconazole against Fusarium oxysporum F. sp. cubense” (International Journal of Molecular Sciences, 2022)

Biological target: T1, N1RIS1_FUSC4 (CYP51 of TR4; Eburicol 14-alpha-demethylase) (Fusarium odoratissimum, UniProt N1RIS1)
T1 construct: gene FOC4_g10015154
T1 sequence (N1RIS1 1-527): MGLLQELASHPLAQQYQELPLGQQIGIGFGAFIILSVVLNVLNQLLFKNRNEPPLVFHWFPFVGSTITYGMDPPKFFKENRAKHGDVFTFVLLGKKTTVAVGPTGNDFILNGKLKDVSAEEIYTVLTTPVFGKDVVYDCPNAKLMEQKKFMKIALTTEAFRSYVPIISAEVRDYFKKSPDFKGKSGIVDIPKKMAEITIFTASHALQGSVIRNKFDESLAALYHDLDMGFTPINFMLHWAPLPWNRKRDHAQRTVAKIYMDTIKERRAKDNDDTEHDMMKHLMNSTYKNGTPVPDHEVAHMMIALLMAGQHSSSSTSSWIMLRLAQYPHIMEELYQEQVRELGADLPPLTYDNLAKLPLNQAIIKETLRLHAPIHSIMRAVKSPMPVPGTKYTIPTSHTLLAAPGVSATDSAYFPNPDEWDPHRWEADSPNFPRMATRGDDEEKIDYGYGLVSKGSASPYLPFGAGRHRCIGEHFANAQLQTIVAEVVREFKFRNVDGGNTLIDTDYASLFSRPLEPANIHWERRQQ
Assay: SPR (Biacore T200, protein amine-coupled on CM5 chip, […] kinetic fit)
Type: binding
Conditions: 25 °C; 3.125-50 μM analyte

Question: For `O[C@](Cc1ccccc1Cl)(Cn1[nH]cnc1=S)C1(Cl)CC1` [R-Pro], which Kd is on record?
Answer: 0.342 nM
